Measured values as given in US12624023B2, “Sulfonylurea derivatives and uses thereof” (NodThera Limited, priority 2019, dated 2026).

How the values were obtained:
[1] = tested on: IL-1β release upon NLRP3 activation in peripheral blood mononuclear cells (PBMC); assay: PBMC IC50 determination assay (IL-1β release, LPS priming + ATP stimulation, HTRF); format: cell-based; settings: PBMC from buffy coats; LPS 1 μg/ml 3 h, compound 30 min, ATP 5 mM 1 h; IL-1β by HTRF
Description: The compounds of the present disclosure were tested for their inhibitory activity against IL-1β release upon NLRP3 activation in peripheral blood mononuclear cells (PBMC).
PBMC were isolated from buffy coats by density gradient centrifugation on Histopaque-1077 (Sigma, cat no. 10771). Isolated cells were seeded into the wells (280,000 cells/well) of a 96-well plate and incubated for 3 h with lipopolysaccharide (LPS, 1 μg/ml diluted 1000× from a 1 mg/ml stock solution). The compounds of the present disclosure were added (a single compound per well) and the cells were incubated for 30 min. Next, the cells were stimulated with ATP (5 mM final concentration diluted 20× from a 100 mM stock solution) for 1 h and the cell culture media from the wells were collected for further analysis.
(§1) The release of IL-1β into the media was determined by quantitative detection of IL-1β in the media using HTRF®, CisBio cat. No. 62HIL1BPEH. Briefly, cell culture supernatant were dispensed directly into the assay plate containing antibodies labelled with the HTRF® donor and acceptor. A microplate spectrophotometer (BMG) was used to detect signals at 655 nm and 620 nm. The detection range of IL-1β HTRF® was 39-6500 μg/ml.

[2] = tested on: IL-1β release upon NLRP3 activation in human whole blood; assay: Whole blood (WB) assay (IL-1β release, LPS priming + ATP stimulation, HTRF); format: cell-based; settings: heparin, diluted 9:5 with media, LPS 1 μg/ml 3 h, compound 30 min, ATP 5 mM 1 h, IL-1β by HTRF
Description: The compounds of the present disclosure were tested for their inhibitory activity against IL-1β release upon NLRP3 activation in human whole blood.
Whole blood was drawn from single healthy donors and treated with sodium heparin anticoagulant. Blood was diluted with cell culture media at a 9:5 ratio, seeded in a 96-well plate and incubated for 3 h with lipopolysaccharide (LPS, 1 μg/ml final concentration diluted 1000× from a 1 mg/ml stock solution). The compounds of the present disclosure were added (a single compound concentration per well) and the blood was incubated for 30 min. Next, the blood was stimulated with ATP (5 mM final concentration diluted 20× from a 100 mM stock solution) for 1 h and the cell culture media from the wells were collected for further analysis.
as §1, with “were diluted as appropriate to bring IL-1β levels within the HTRF® detection range ([…]) and subsequently” for “were”, “dispensed” for “dispensed directly”, “nm.” for “nm. The detection range of IL-1β HTRF® was 39-6500 μg/ml.”

Row | IC50 [2] [nM] | Compound | IC50 [1] [nM]
1 | < 1000 | CC(C)c1cc(NC(=O)NS(=O)(=O)N(c2cnn(C)c2)[C@H]2CCCN(C)C2)c(C(C)C)s1 [Compound 56, 3-[2,5-Bis(propan-2-yl)thiophen-3-yl]-1-[(1-methyl-1H-pyrazol-4-yl)[(3S)-1-methylpiperidin-3-yl]sulfamoyl]urea] | < 100
2 | 3000 to 10000 | CC(C)c1cc(NC(=O)NS(=O)(=O)N(c2cnn(C)c2)C2CCCN(C)C2)c(C(F)(F)F)s1 (centres unmarked) [Compound 121, 1-[(1-Methyl-1H-pyrazol-4-yl)(1-methylpiperidin-3-yl)sulfamoyl]-3-[5-(propan-2-yl)-2-(trifluoromethyl)thiophen-3-yl]urea] | 100 to 500
3 | < 1000 | Cc1sc2c(c1NC(=O)NS(=O)(=O)N(c1cnn(C)c1)[C@@H]1CCCN(C)C1)CCC2 [Compound 95, 1-[(1-Methyl-1H-pyrazol-4-yl)[(3R)-1-methylpiperidin-3-yl]sulfamoyl]-3-{2-methyl-4H,5H,6H-cyclopenta[b]thiophen-3-yl}urea] | 100 to 500
4 | < 1000 | Cc1sc2c(c1NC(=O)NS(=O)(=O)N(c1cnn(C3CC3)c1)C1CCCN(C)C1)CCC2 (centres unmarked) [Compound 118, 1-[(1-Cyclopropyl-1H-pyrazol-4-yl)(1-methylpiperidin-3-yl)sulfamoyl]-3-{2-methyl-4H,5H,6H-cyclopenta[b]thiophen-3-yl}urea] | < 100
5 | 3000 to 10000 | Cc1csc(C)c1NC(=O)NS(=O)(=O)N(c1cnn(C)c1)C1CCOCC1 [Compound 1, 3-(2,4-Dimethylthiophen-3-yl)-1-[(1-methyl-1H-pyrazol-4-yl)(oxan-4-yl)-sulfamoyl]urea] | 1000 to 5000
6 | 1000 to 3000 | CCc1cc(CC)c(NC(=O)NS(=O)(=O)N(c2cnn(C)c2)C2CCCN(C)C2)s1 (centres unmarked) [Compound 29, 3-(3,5-Diethylthiophen-2-yl)-1-[(1-methyl-1H-pyrazol-4-yl)(1-methylpiperidin-3-yl)sulfamoyl]urea] | 100 to 500
7 | 1000 to 3000 | CC(C)c1sc(C2CC2)cc1NC(=O)NS(=O)(=O)N(c1cnn(C)c1)C1CCCN(C)C1 (centres unmarked) [Compound 37, 3-[5-Cyclopropyl-2-(propan-2-yl)thiophen-3-yl]-1-[(1-methyl-1H-pyrazol-4-yl)(1-methylpiperidin-3-yl)sulfamoyl]urea] | < 100
8 | < 1000 | CC(C)c1sc2c(c1NC(=O)NS(=O)(=O)N(c1cnn(C)c1)[C@H]1CCCN(C)C1)CCC2 [Compound 85, 1-[(1-Methyl-1H-pyrazol-4-yl)[(3S)-1-methylpiperidin-3-yl]sulfamoyl]-3-[2-(propan-2-yl)-4H,5H,6H-cyclopenta[b]thiophen-3-yl]urea] | < 100
9 | 3000 to 10000 | CC(C)c1cc(NC(=O)NS(=O)(=O)N(c2cnn(C)c2)[C@H]2C[C@@H](F)CN(C)C2)c(C(C)C)s1 [Compound 96, 3-[2,5-Bis(propan-2-yl)thiophen-3-yl]-1-{[(3S,5R)-5-fluoro-1-methylpiperidin-3-yl](1-methyl-1H-pyrazol-4-yl)sulfamoyl}urea] | 100 to 500
10 | 1000 to 3000 | Cc1sc2c(c1NC(=O)NS(=O)(=O)N(c1cnn(C)c1F)C1CCN(C)CC1)CCC2 [Compound 120, 1-[(5-Fluoro-1-methyl-1H-pyrazol-4-yl)(1-methylpiperidin-4-yl)sulfamoyl]-3-{2-methyl-4H,5H,6H-cyclopenta[b]thiophen-3-yl}urea] | < 100
11 | < 1000 | Cc1sc(C(F)(F)F)cc1NC(=O)NS(=O)(=O)N(c1cnn(C)c1)C1CCCN(C)C1 (centres unmarked) [Compound 117, 1-[(1-Methyl-1H-pyrazol-4-yl)(1-methylpiperidin-3-yl)sulfamoyl]-3-[2-methyl-5-(trifluoromethyl)thiophen-3-yl]urea] | 100 to 500
12 | 1000 to 3000 | CC(C)c1cc(NC(=O)NS(=O)(=O)N(c2cnn(C3CC3)c2F)C2CCCN(C)C2)c(C(C)C)s1 (centres unmarked) [Compound 99, 3-[2,5-Bis(propan-2-yl)thiophen-3-yl]-1-[(1-cyclopropyl-5-fluoro-1H-pyrazol-4-yl)(1-methylpiperidin-3-yl)sulfamoyl]urea] | < 100
13 | < 1000 | CCc1sc(C(C)C)cc1NC(=O)NS(=O)(=O)N(c1cnn(C)c1)[C@@H]1CCCN(C)C1 [Compound 58, 3-[2-Ethyl-5-(propan-2-yl)thiophen-3-yl]-1-[(1-methyl-1H-pyrazol-4-yl)[(3R)-1-methylpiperidin-3-yl]sulfamoyl]urea] | < 100
14 | 1000 to 3000 | CCc1csc(CC)c1NC(=O)NS(=O)(=O)N(c1cnn(C)c1)C1CCCN(C)C1 (centres unmarked) [Compound 14, 3-(2,4-Diethylthiophen-3-yl)-1-[(1-methyl-1H-pyrazol-4-yl)(1-methylpiperidin-3-yl)sulfamoyl]urea] | < 100

Further lines, the molecule ahead of its results:

Row | Compound | IC50 [2] [nM] | IC50 [1] [nM]
15 | CC(C)c1cc(NC(=O)NS(=O)(=O)N(c2cnn(C)c2)C2CN(C)CC(F)(F)C2)c(C(C)C)s1 (centres unmarked) [Compound 93, 3-[2,5-Bis(propan-2-yl)thiophen-3-yl]-1-[(5,5-difluoro-1-methylpiperidin-3-yl)(1-methyl-1H-pyrazol-4-yl)sulfamoyl]urea] | 3000 to 10000 | 100 to 500
16 | Cc1cc(NC(=O)NS(=O)(=O)N(c2cnn(C)c2)C2CCN(C)CC2)c(C(C)C)s1 [Compound 100, 1-[(1-Methyl-1H-pyrazol-4-yl)(1-methylpiperidin-4-yl)sulfamoyl]-3-[5-methyl-2-(propan-2-yl)thiophen-3-yl]urea] | < 1000 | 100 to 500
17 | Cc1cc(NC(=O)NS(=O)(=O)N(c2cnn(C3CC3)c2)[C@@H]2CCCN(C)C2)c(C2CC2)s1 [Compound 106, 1-[(1-Cyclopropyl-1H-pyrazol-4-yl)[(3R)-1-methylpiperidin-3-yl]sulfamoyl]-3-(2-cyclopropyl-5-methylthiophen-3-yl)urea] | 1000 to 3000 | 100 to 500
18 | Cc1cc(NC(=O)NS(=O)(=O)N(c2cnn(C)c2)[C@@H]2CCCN(C)C2)c(C(C)C)s1 [Compound 66, 1-[(1-Methyl-1H-pyrazol-4-yl)[(3R)-1-methylpiperidin-3-yl]sulfamoyl]-3-[5-methyl-2-(propan-2-yl)thiophen-3-yl]urea] | < 1000 | < 100
19 | Cc1nsc(C(C)C)c1NC(=O)NS(=O)(=O)N(c1cnn(C)c1)C1CCCN(C)C1 (centres unmarked) [Compound 124, 1-[(1-Methyl-1H-pyrazol-4-yl)(1-methylpiperidin-3-yl)sulfamoyl]-3-[3-methyl-5-(propan-2-yl)-1,2-thiazol-4-yl]urea] | > 20000 | > 10000
20 | CC(C)c1cc(NC(=O)NS(=O)(=O)N(CCN(C)C)c2cnn(C(C)C)c2)c(C(C)C)o1 [Compound 83, 1-[2,5-Bis(propan-2-yl)furan-3-yl]-3-{[2-(dimethylamino)ethyl][1-(propan-2-yl)-1H-pyrazol-4-yl]sulfamoyl}urea] | 1000 to 3000 | 100 to 500
21 | Cc1cc(NC(=O)NS(=O)(=O)N(c2cnn(C)c2)[C@H]2CCCN(C)C2)c(C2CC2)s1 [Compound 107, 3-(2-Cyclopropyl-5-methylthiophen-3-yl)-1-[(1-methyl-1H-pyrazol-4-yl)[(3S)-1-methylpiperidin-3-yl]sulfamoyl]urea] | 1000 to 3000 | 100 to 500
22 | Cc1sc2c(c1NC(=O)NS(=O)(=O)N(c1cnn(C)c1)C1CCN(C)CC1)CCC2 [Compound 109, 1-[(1-Methyl-1H-pyrazol-4-yl)(1-methylpiperidin-4-yl)sulfamoyl]-3-{2-methyl-4H,5H,6H-cyclopenta[b]thiophen-3-yl}urea] | 1000 to 3000 | 100 to 500
23 | CC(C)c1cc(NC(=O)NS(=O)(=O)N(c2cnn(C)c2)[C@H]2C[C@H](F)CN(C)C2)c(C(C)C)s1 [Compound 92, 3-[2,5-Bis(propan-2-yl)thiophen-3-yl]-1-{[(3S,5S)-5-fluoro-1-methylpiperidin-3-yl](1-methyl-1H-pyrazol-4-yl)sulfamoyl}urea] | < 1000 | < 100
24 | Cc1sc2c(c1NC(=O)NS(=O)(=O)N(c1cnn(C)c1)[C@H]1CCN(C)C1)CCC2 [Compound 125, 1-[(1-Methyl-1H-pyrazol-4-yl)[(3S)-1-methylpyrrolidin-3-yl]sulfamoyl]-3-{2-methyl-4H,5H,6H-cyclopenta[b]thiophen-3-yl}urea] | < 1000 | < 100
25 | Cc1cc(NC(=O)NS(=O)(=O)N(c2cnn(C)c2)C2CCOCC2)c(C)s1 [Compound 2, 3-(2,5-Dimethylthiophen-3-yl)-1-[(1-methyl-1H-pyrazol-4-yl)(oxan-4-yl)sulfamoyl]urea] | 3000 to 10000 | 500 to 1000
